Measured values published in US20070021450A1, “Indanylamino uracils and their use as antioxidants and neuroprotectants” (priority 2004, published 2007).

Columns and labels:
[1] = test system: neutrophils; test: PMA-induced oxidative burst in neutrophils (DCFH, FACS); format: cell-based; conditions: PMA 10 ng/ml 30 min, compared to ascorbic acid
Procedure: PMA-induced oxidative burst in neutrophils: The cells were activated with PMA (10 ng/ml) for 30 min and incubated with 2,7-dichlorodihydrofluorescin diacetate (DCFH), which, in the presence of O2 radicals and peroxynitrites, is converted to a fluorescent compound. The fluorescent cells are detected in a cell sorter (FACS).

[2] = Chemical chemiluminescence (without cells): Luminol+SIN-1+selenite+BSA; parameters: concentration or dose not given beside the values; conditions: compared to ascorbic acid
Source text: Luminescence was generated in vials containing the following compounds: Luminol+SIN-1(generator of NO radicals)+selenite+BSA. This reaction is inhibited by scavengers of peroxynitrites, as well as scavengers of NO and O2 free radicals.

[3] = test system: EAE; test: Treatment of EAE with TEMPOL (FIG. 1); format: in vivo, mice; conditions: Tempol 100 mg and 200 mg groups
Source text: The dosage of TEMPOL used here was […] higher than the dosages of compounds 6 and 7 below. The experiments were terminated arbitrarily at day 18 post-immunization. The course of EAE in different groups of animals varies. Consequently, recovery time is variable, typically by two or three days.

[4] = test system: human red blood cells; test: Hypochlorite (HOCl) hemolysis of human red blood cells; format: cell-based; conditions: activity compared to ascorbic acid
Procedure: Hypochlorite (HOCl) hemolysis of human red blood cells. The reaction is based on the ability of O2 radicals to lyse red blood cells. Antioxidant compounds such as ascorbic acid and 4-hydroxy-2,2,6,6-tetramethyl-piperidine-1-oxyl (TEMPOL) prevent membrane damage in a dose dependent manner. All compounds were dissolved at a concentration of 5 mg/ml and aliquots were tested for their ability to prevent lysis.

[5] = Reaction with 1,1-diphenyl-2-picrylhydrazyl (DPPNH), radical scavenging; format: physicochemical; conditions: equimolar amounts; for DPPNH: radical scavenging, grades 0 to +++, key not given; for DPPNH consumed: reacted instantaneously
Procedure: (§1) Reaction with 1,1-diphenyl-2-picrylhydrazyl (DPPNH) is indicative of radical scavenging ability. The compounds were mixed with DPPNH (in equimolar amounts) and the consumption rate of DPPNH was measured. Compounds 3 and 4 reacted instantaneously, consuming 70% and 20% of DPPNH respectively (Table 2). The oxidation potential of the compounds was measured by cyclic voltametry.

[6] = test system: EAE (PLP 139-151 challenge); test: PLP induced experimental allergic encephalomyelitis (EAE) in SJL mice; format: in vivo; parameters: key to Mean maximal score / Mean score (group mean score): clinical score 0 = no signs to 6 = death; conditions: for effect on EAE, in words: 50 mg/kg/day po
Procedure: Female SJL mice (12 weeks) were inoculated with the encephalitogenic peptide of proteolipid protein (PLP 139-151) synthesized to a purity of 70% by Sigma (Israel). 150 μg of the peptide were emulsified in complete Freund's adjuvant (CFA) (Difco laboratories), supplemented with killed mycobacteria (5 mg/ml) and pertussis toxin (200 ng) (Sigma), given subcutaneously at day of inoculation only.
Mice were kept SPF conditions and given water and food ad libitum. Mice were daily observed for clinical signs from day 10 to day 18-21 post inoculation.
The clinical score used is as follows: 0—no clinical signs; 0.5—loss of right reflex; 1—distal limp tail; 2—complete limp tail; 3—ataxia; 4—early paralysis (one hind limb); 5—complete hind legs paralysis and moribund state; 6—death.
Compounds were dissolved in 2-hydroxypropyl beta cyclodextrin (40% water solution). Treatment started at day 1 post inoculation. The compounds (50 mg/kg) and vehicle were given orally by gavage every day until day 20 post inoculation.
Compounds 6 and 7 were given orally to mice challenged with PLP, at a dose of 50 mg/kg/day, p.o. The results are presented in Table 3a and in FIGS. 2 and 3. The effect of Compound 6 on all parameters of the disease was more pronounced as compared to the control group.

[7] = Oxidation potential by cyclic voltametry; format: physicochemical; conditions: for oxidation potential (cyclic voltametry), in words: pH 7.2
Procedure: as §1

[8] = test system: EAE (PLP 139-151 challenge); test: PLP induced experimental allergic encephalomyelitis (EAE) in SJL mice; format: in vivo; conditions: single dose daily, po
[9] = test system: EAE (MSCH emulsion induction); test: EAE in CSJL mice, acute model (MSCH/CFA induction); format: in vivo; conditions: for Mortality / Incidence: 30 days, CSJL mice; for Mean Duration: duration of disease; for % inhibition 3: inhibition of GMS vs control; for % inhibition 2: inhibition of MMS vs control; for % inhibition 1: inhibition of incidence vs control; for GMS value: mean group score; for MMS value: mean maximal score
[10] = Table 3b: 50 mg/kg, single dose daily, po
[11] = Table 3b: 50 mg/kg, single dose daily, po, only mice that develop disease
[12] = Table 3b: 12.5 mg/kg, single dose daily, po
[13] = Table 3b: 100 mg/kg, single dose daily, po
[14] = Table 3a: 50 mg/kg/day po, single dose daily, PLP challenge
[15] = 25.0 mg/kg × 2 per day (single dose on weekends), oral
[16] = Table 3a: 50 mg/kg/day po, PLP challenge, mean ± SEM

Q: With `CC1(C)CC(O)CC(C)(C)N1[O]` [4-hydroxy-2,2,6,6-tetramethyl-piperidine-1-oxyl, reference compound] as the molecule, how does the “PMA % of cells activated” value [1] read?
A: 80%

Q: What about the “% Chemiluminescence inhibition” value [2] of the same molecule?
A: 78%

Q: What about the “manifestation of clinical signs of EAE, in words” value [3] of the same molecule?
A: has the ability to inhibit the manifestation of clinical signs of EAE

Q: What about the HOCl % lysis [4] of the same molecule?
A: 50%

Q: What does the source list for `O=C1O[C@H]([C@@H](O)CO)C(O)=C1O` [Ascorbic acid, reference compound]?
A: PMA % of cells activated [1]: 100%; % Chemiluminescence inhibition [2]: 100%; HOCl % lysis [4]: 100%

Q: Which results are given for `Nc1cc(=O)[nH]c(=O)n1C1CCc2ccccc21` (centres unmarked) [Compound 1, 6-amino-1-indan-1-yl-1H-pyrimidine-2,4-dione]?
A: PMA % of cells activated [1]: 0%; % Chemiluminescence inhibition [2]: 0%; DPPNH [5]: 0; Incidence [6, 10]: 6/8; Mean disease duration [6, 10]: 5.57 ± 1.72; Mean maximal score [6, 10]: 4.2; Mean score [6, 10]: 3.4 ± 0.2; Mean day of onset [6, 11]: 12.5 ± 0.7; HOCl % lysis [4]: 75%; oxidation potential (cyclic voltametry), in words [7]: reducing action, but to a lesser extent than compound 3

Q: With `Nc1c(N)n(C2CCc3ccccc32)c(=O)[nH]c1=O` (centres unmarked) [Compound 3, 5,6-diamino-1-indan-1-yl-1H-pyrimidine-2,4-dione] as the molecule, how does the “PMA % of cells activated” value [1] read?
A: 30%

Q: And the “% Chemiluminescence inhibition” value [2]?
A: 38%

Q: What about the DPPNH consumed [5] of the same molecule?
A: 70%

Q: And the HOCl % lysis [4]?
A: 72%

Q: And the “oxidation potential (cyclic voltametry), in words” value [7]?
A: strong electron donor activity

Q: And the melting point?
A: 218 °C (dec.)

Q: Which DPPNH consumed [5] does the source give for `Nc1c(NC2CCc3ccccc32)[nH]c(=O)[nH]c1=O` (centres unmarked) [Compound 4, 5-amino-6-(indan-1-ylamino)-1H-pyrimidine-2,4-dione] here?
A: 20%

Q: What about the “Cyclic voltametry - AW” value ([7]; anodic wave, grades 0 to +++, key not given) of the same molecule?
A: 0

Q: What about the melting point of the same molecule?
A: > 150 °C

Q: With `O=c1cc(NC2CCc3ccccc32)[nH]c(=O)[nH]1` (centres unmarked) [Compound 5, 6-(indan-1-ylamino)-1H-pyrimidine-2,4-dione] as the molecule, how does the “PMA % of cells activated” value [1] read?
A: 80%

Q: What about the “% Chemiluminescence inhibition” value [2] of the same molecule?
A: 75%

Q: What about the DPPNH [5] of the same molecule?
A: 0

Q: What about the Incidence [6, 12] of the same molecule?
A: 18/18

Q: And the Mean maximal score [6, 12]?
A: 4.5

Q: What about the Incidence [6, 10] of the same molecule?
A: 14/16

Q: And the Mean disease duration [6, 10]?
A: 5.64 ± 1.55

Q: And the Mean maximal score [6, 10]?
A: 5

Q: And the Mean score [6, 10]?
A: 3.48 ± 0.3

Q: And the “Mean day of onset” value [6, 11]?
A: 12.9 ± 1.35

Q: What about the Incidence [6, 13] of the same molecule?
A: 5/5

Q: And the Mean maximal score [6, 13]?
A: 5

Q: And the Mean score [6, 13]?
A: 3.2 ± 0.25

Q: What about the “Mean day of onset” value ([6]; Table 3b:, single dose daily, po, only mice that develop disease) of the same molecule?
A: 11.8 ± 1.1

Q: And the HOCl % lysis [4]?
A: 100%

Q: And the “oxidation potential (cyclic voltametry), in words” value [7]?
A: reducing action, but to a lesser extent than compound 3

Q: What about the Mean disease duration ([8]; Table 3b: 12.5 mg/kg) of the same molecule?
A: 6.06 ± 1.7

Q: And the Mean score ([8]; Table 3b: 12.5 mg/kg)?
A: 3.8 ± 0.35

Q: What about the “Mean day of onset” value ([8]; Table 3b: 12.5 mg/kg, only mice that develop disease) of the same molecule?
A: 12 ± 0.68

Q: What about the Mean disease duration ([8]; Table 3b: 100 mg/kg) of the same molecule?
A: 4.4 ± 1.7

Q: What does the source list for `CN(C)c1cccc2c1CCC2Nc1cc(=O)[nH]c(=O)[nH]1.Cl` (centres unmarked) [Compound 6, 6-(4-dimethylamino-indan-1-ylamino)-1H-pyrimidine-2,4-dione HCl]?
A: % Chemiluminescence inhibition [2]: 56%; effect on EAE, in words ([6]; PLP challenge): significant beneficial effect on EAE; (# dead) [6, 14]: (4); Incidence [6, 14]: 10/14; HOCl % lysis [4]: 44%; Mortality [9, 15]: 4/10; Incidence ([9]; 25.0 mg/kg × 2 per day, oral): 7/10; Incidence ([9]; 50.0 mg/kg once a day, oral): 7/10; Mortality ([9]; 50.0 mg/kg once a day, oral): 5/10; Mean Duration ([9]; 25.0 mg/kg × 2, oral): 11.1 ± 8.6 days; Mean Duration ([9]; 50.0 mg/kg once a day, oral): 11.3 ± 8.5 days; % inhibition 3 ([9]; 25.0 mg/kg × 2, oral): 40.6%; % inhibition 3 ([9]; 50.0 mg/kg once a day, oral): 31.3%; % inhibition 2 ([9]; 25.0 mg/kg × 2, oral): 34.1%; % inhibition 2 ([9]; 50.0 mg/kg once a day, oral): 26.8%; % inhibition 1 ([9]; 25.0 mg/kg × 2, oral): 30.0%; % inhibition 1 ([9]; 50.0 mg/kg once a day, oral): 30.0%; GMS value ([9]; 25.0 mg/kg × 2, oral): 1.9 ± 1.9; GMS value ([9]; 50.0 mg/kg once a day, oral): 2.2 ± 1.8; MMS value ([9]; 25.0 mg/kg × 2, oral): 2.7 ± 2.2; MMS value ([9]; 50.0 mg/kg once a day, oral): 3.0 ± 2.3

Q: Which “% Chemiluminescence inhibition” value [2] does the source give for `CN(C)c1ccc2c(c1)C(Nc1cc(=O)[nH]c(=O)[nH]1)CC2.Cl` (centres unmarked) [Compound 7, 6-(6-dimethylamino-indan-1-ylamino)-1H-pyrimidine-2,4-dione HCl] here?
A: 62%

Q: What about the “effect on EAE, in words” value ([6]; PLP challenge) of the same molecule?
A: significant beneficial effect on EAE

Q: What about the “Mean day of onset” value [6, 16] of the same molecule?
A: 14.8 ± 0.94

Q: What about the Mean disease duration [6, 16] of the same molecule?
A: 4.1 ± 0.84

Q: What about the Mean maximal score [6, 16] of the same molecule?
A: 4.3 ± 0.9

Q: What about the “Mean score (group mean score)” value [6, 16] of the same molecule?
A: 1.6 ± 0.27

Q: What about the “(# dead)” value [6, 14] of the same molecule?
A: (4)

Q: What about the Incidence [6, 14] of the same molecule?
A: 11/14

Q: And the HOCl % lysis [4]?
A: 55%

Q: And the Mortality [9, 15]?
A: 8/10

Q: And the Incidence ([9]; 25.0 mg/kg × 2 per day, oral)?
A: 8/10

Q: And the Incidence ([9]; 50.0 mg/kg once a day, oral)?
A: 7/10

Q: What about the Mortality ([9]; 50.0 mg/kg once a day, oral) of the same molecule?
A: 7/10

Q: What about the “Mean Duration” value ([9]; 25.0 mg/kg × 2, oral) of the same molecule?
A: 13.9 ± 7.5 days

Q: What about the “Mean Duration” value ([9]; 50.0 mg/kg once a day, oral) of the same molecule?
A: 12.7 ± 8.8 days

Q: What about the “% inhibition 3” value ([9]; 25.0 mg/kg × 2, oral) of the same molecule?
A: 9.4%

Q: What about the “% inhibition 3” value ([9]; 50.0 mg/kg once a day, oral) of the same molecule?
A: 15.6%

Q: What about the “% inhibition 2” value ([9]; 25.0 mg/kg × 2, oral) of the same molecule?
A: 2.4%

Q: What about the “% inhibition 2” value ([9]; 50.0 mg/kg once a day, oral) of the same molecule?
A: 14.6%

Q: And the “% inhibition 1” value ([9]; 25.0 mg/kg × 2, oral)?
A: 20.0%

Q: What about the “% inhibition 1” value ([9]; 50.0 mg/kg once a day, oral) of the same molecule?
A: 30.0%

Q: And the GMS value ([9]; 25.0 mg/kg × 2, oral)?
A: 2.9 ± 1.6

Q: And the GMS value ([9]; 50.0 mg/kg once a day, oral)?
A: 2.7 ± 1.9

Q: And the MMS value ([9]; 25.0 mg/kg × 2, oral)?
A: 4.0 ± 2.1

Q: What about the MMS value ([9]; 50.0 mg/kg once a day, oral) of the same molecule?
A: 3.5 ± 2.4

Q: With `CC1(C)CC(O)CC(C)(C)N1O` [N-Hydroxy-tetramethyl-4-piperidinol, reference compound] as the molecule, how does the “PMA % of cells activated” value [1] read?
A: 60%

Q: What about the “% Chemiluminescence inhibition” value [2] of the same molecule?
A: 42%

Q: What about the HOCl % lysis [4] of the same molecule?
A: 52%

Q: What does the source list for `CC1(C)CC(O)CC(C)(C)N1` [Tetramethyl-4-piperidinol, reference compound]?
A: PMA % of cells activated [1]: 30%; % Chemiluminescence inhibition [2]: 1.2%; HOCl % lysis [4]: 0%
